This assay relates to PMA-differentiated THP-1 cells. The assay is described as follows: IL-1β production in PMA-differentiated THP-1 cells stimulated with gramicidin (hTHP-1 assay containing 2% fetal bovine serum; Procedures 1 and 2). Type of assay: cell-based, human. The note with it: 2% fetal bovine serum. The method, boiled down:
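Human monocytic THP-1 cells, matured overnight with PMA at 20 ng/ml, are seeded in low-serum (2% FBS) RPMI. Test compounds, at final concentrations from 100 down to 0.0017 μM, precede gramicidin (5 μM, 2 h) by one hour. Released IL-1β is then determined by HTRF.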

Setting [1] is: Table B2, class symbols, read-out: hTHP-1 IC50.
Setting [2] is: Homo sapiens, THP-1, Table B1, class symbols, read-out: Average IC50 of compounds in hTHP-1 assay: hTHP-1 IC50.
[3] abbreviates: Homo sapiens, THP-1, Table B2, numeric bounds, read-out: hTHP-1 IC50.
Setting [4] is: Homo sapiens, THP-1, Table B2, class symbols, read-out: hTHP-1 IC50.
Where [5] appears, read: Homo sapiens, THP-1, Table B3, hTHP-1 assay, class symbols, read-out: IC50.

SMILES strings stand for the structures. Where two headings read alike, the source gives them in different places.

As for `CCC1CCc2c1nc1c(c2NC(=O)N=S(N)(=O)c2sc(C(C)(C)O)cc2F)CCC1` (stereo not shown) [Compound 671, N′-((3-ethyl-1,2,3,5,6,7-hexahydrodicyclopenta[b,e]pyridin-8-yl)carbamoyl)-3-fluoro-5-(2-hydroxypropan-2-yl)thiophene-2-sulfonimidamide], under setting [1], the IC50 (commonly the concentration at which inhibition is half-maximal) was 1 to 5 µM. Take `CN(C)Cc1ccc(S(N)(=O)=NC(=O)Nc2c3c(nc4c2CCC4)CCC3)cc1` (stereo not shown) [Compound 130, 4-((dimethylamino)methyl)-N′-((1,2,3,5,6,7-hexahydrodicyclopenta[b,e]pyridin-8-yl)carbamoyl)benzenesulfonimidamide]: the 50% inhibitory concentration (IC50) under setting [2] lay within 5 to 30 µM. Regarding `CC(C)(O)c1csc(S(N)(=O)=NC(=O)Nc2cc(CC(F)(F)F)nc3c2CCC3)c1` (single isomer, unassigned) [Compound 607a, (S) or (R)-4-(2-Hydroxypropan-2-yl)-N′-((2-(2,2,2-trifluoroethyl)-6,7-dihydro-5H-cyclopenta[b]pyridin-4-yl)carbamoyl) thiophene-2-sulfonimidamide], the IC50 under setting [3] was more than 30 µM. On to `CC(C)n1nc(S(N)(=O)=NC(=O)Nc2c3c(nc4c2CCC4(C)C)CCC3)cc1CO` (single isomer, unassigned) [Compound 652a], for which, under setting [4], the IC50 lay within 0.2 to 1 µM. For the compound `CCc1ncc(S(N)(=O)=NC(=O)Nc2c3c(nc4c2CC[C@H]4C)CCC3)s1` (stereo partly drawn) [Example 629, 2-Ethyl-N′-(((R)-3-methyl-1,2,3,5,6,7-hexahydrodicyclopenta[b,e]pyridin-8-yl)carbamoyl)thiazole-5-sulfonimidamide], the IC50 under setting [5] is 0.2 to 1 µM. `CC(C)(O)c1cc(F)c(S(N)(=O)=NC(=O)Nc2c3c(nc4c2CCC42CC2)CCC3)s1` (single isomer, unassigned) [Compound 101b, (R) or (S)-3-fluoro-5-(2-hydroxypropan-2-yl)-N′-((1′,5′,6′,7′-tetrahydro-2′H-spiro[cyclopropane-1,3′-dicyclopenta[b,e]pyridin]-8′-yl)carbamoyl)thiophene-2-sulfonimidamide]: the IC50 (Table B1, class symbols, read-out: Average IC50 of compounds in hTHP-1 assay: hTHP-1 IC50) lay within 0.008 to 0.04 µM.

Turning to `Cc1c(C(F)(F)F)nc2c(c1NC(=O)N=S(N)(=O)c1cnc(C(C)(O)CO)s1)CCC2` (single isomer, unassigned) [Compound 605d, (R, S) and (S, S) or (R, R) and (S, R)-2-(l,2-Dihydroxypropan-2-yl)-N′-((3-methyl-2-(trifluoromethyl)-6,7-dihydro-5H-cyclopenta[b]pyridin-4-yl)carbamoyl) thiazole-5-sulfonimidamide], the IC50 under setting [3] is more than 30 µM. Consider `CN(C)Cc1ccc(S(N)(=O)=NC(=O)Nc2c3c(nc4c2CCC4)CCC3)cc1` (single isomer, unassigned) [Compound 130b, (R) or (S)-4-((dimethylamino)methyl)-N′-((1,2,3,5,6,7-hexahydro-dicyclopenta[b,e]pyridin-8-yl)carbamoyl)benzene-sulfonamidamide], for which the half-inhibitory concentration (IC50) under setting [2] fell in the range of 1 to 5 µM. With `C[C@@](O)(CO)c1cc(F)c(S(N)(=O)=NC(=O)Nc2c3c(nc4c2CCC42CC2)CCC3)s1` (stereo partly drawn) [Example 607, 5-((R)-1,2-dihydroxypropan-2-yl)-3-fluoro-N′-((1′,5′,6′,7′-tetrahydro-2′H-spiro[cyclopropane-1,3′-dicyclopenta[b,e]pyridin]-8′-yl)carbamoyl)thiophene-2-sulfonimidamide], under setting [5], the IC50 fell in the range of 0.2 to 1 µM.

Regarding `CC1(C)CCc2c1nc1c(c2NC(=O)N=S(N)(=O)c2cnc(C(O)(CO)CO)s2)CCC1` (stereo not shown) [Compound 734, N′-((3,3-dimethyl-1,2,3,5,6,7-hexahydrodicyclopenta[b,e]pyridin-8-yl)carbamoyl)-2-(1,2,3-trihydroxypropan-2-yl)thiazole-5-sulfonimidamide], the IC50 under setting [4] was 0.2 to 1 µM. For `CC(C)(O)c1sc(S(N)(=O)=NC(=O)Nc2c3c(nc4c2CCC4(C)C)CCC3)nc1CO` (single isomer, unassigned) [Compound 642a, (S) or (R)-N′-((3,3-dimethyl-1,2,3,5,6,7-hexahydrodicyclopenta [b,e]pyridin-8-yl)carbamoyl)-4-(hydroxymethyl)-5-(2-hydroxypropan-2-yl)thiazole-2-sulfonimidamide], the IC50 under setting [1] lay within 5 to 30 µM.

Take `CC1(C)CCc2c1nc1c(c2NC(=O)N=S(N)(=O)c2cnn3c2OCCC3)CCC1` (single isomer, unassigned) [Compound 304a, (S) or (R)-N′-((3,3-dimethyl-1,2,3,5,6,7-hexahydrodicyclopenta [b,e]pyridin-8-yl)carbamoyl)-6,7-dihydro-5H-pyrazolo[5,1-b][1,3] oxazine-3-sulfonimidamide]: under setting [3], the IC50 is more than 30 µM. `CCC1CCc2c1nc1c(c2NC(=O)N=S(N)(=O)c2ccn(C(F)F)n2)CCC1` (single isomer, unassigned) [Compound 668c, (R, R) or (R, S) or (S, R) or (S, S)-1-(Difluoromethyl)-N′-((3-ethyl-1,2,3,5,6,7-hexahydrodicyclopenta [b,e]pyridin-8-yl)carbamoyl)-1H-pyrazole-3-sulfonimidamide]: the IC50 under setting [4] lay within 5 to 30 µM. As to `Cc1c(C(F)(F)F)nc2c(c1NC(=O)N=S(N)(=O)c1sc(C(C)(C)O)cc1F)CCC2` (single isomer, unassigned) [Compound 632a, (R) or (S)-3-Fluoro-5-(2-hydroxypropan-2-yl)-N′-((3-methyl-2-(trifluoromethyl)-6,7-dihydro-5H-cyclopenta[b]pyridin-4-yl)carbamoyl) thiophene-2-sulfonimidamide], the IC50 under setting [1] was in the range of 0.04 to 0.2 µM. With `CCn1ccc(S(N)(=O)=NC(=O)Nc2c3c(nc(C4CC4)c2C2CC2)CCC3)n1` (stereo not shown) [Example 632, N′-((2,3-dicyclopropyl-6,7-dihydro-5H-cyclopenta[b]pyridin-4-yl)carbamoyl)-1-ethyl-1H-pyrazole-3-sulfonimidamide], the IC50 under setting [5] was 1 to 5 µM.

For `CCn1ccc([S@@](N)(=O)=NC(=O)Nc2c(C)c(C(F)(F)F)nc3c2CCC3)n1` [Compound 731a], the IC50 under setting [4] fell in the range of 5 to 30 µM. As to `Cc1c(C(F)(F)F)nc2c(c1NC(=O)N=S(N)(=O)c1cnn3c1OCCC3)CCC2` (stereo not shown) [Example 565, N′-((3-methyl-2-(trifluoromethyl)-6,7-dihydro-5H-cyclopenta [b]pyridin-4-yl)carbamoyl)-6,7-dihydro-5H-pyrazolo[5,1-b][1,3]oxazine-3-sulfonimidamide], under setting [5], the IC50 lay in the range of 5 to 30 µM. Turning to `CC(C)(O)c1ncc(S(N)(=O)=NC(=O)Nc2c3c(nc4c2CCC4=O)CCC3)s1` (stereo not shown) [Compound 711], under setting [3], the IC50 was more than 30 µM. As to `Cc1c(C2CC2)nc2c(c1NC(=O)N=S(N)(=O)c1ccn(C(F)F)n1)CCC2` (stereo not shown) [Compound 676, N′-((2-cyclopropyl-3-methyl-6,7-dihydro-5H-cyclopenta[b]pyridin-4-yl)carbamoyl)-1-(difluoromethyl)-1H-pyrazole-3-sulfonimidamide], the half-inhibitory concentration (IC50) under setting [4] fell in the range of 1 to 5 µM.

(Values after patent US20230031406A1, “COMPOUNDS AND COMPOSITIONS FOR TREATING CONDITIONS ASSOCIATED WITH NLRP ACTIVITY” (Novartis AG, priority 2018, published 2023).)
